Blank lines part the entries; values can stand above or below the molecule they belong to.
Tests used:
[1] = system: urethra internal pressure of a rat; test: Measurement of Urethra Internal Pressure in Rat Under Anesthesia; format: in vivo; details: SD male rat under urethane anesthesia, intravenous
From the text: A SD male rat (Crl: CD(SD), Charles River Laboratories Japan, Inc., 7-10 weeks old) was anesthetized by subcutaneous administration of 1.5 g/kg urethane at a back of a neck. After neck median incision, a jugular vein catheter for intravenous administration was inserted. A lower abdominal part was median incised, and a urethra was ligated at around pubis. A urethral catheter for measuring a urethra internal pressure, equipped with a collar at a tip and filled with a physiological saline was inserted into a urethra through an incised bladder top, and ligation-fixed at a bladder neck part. The urethral catheter was connected to a pressure transducer (manufactured by Nihon Kohden Corporation), and a urethra internal pressure was measured. […] A urethra internal pressure reduction rate (%) was calculated based on a urethra internal pressure after compound administration, wherein a value obtained by subtracting a postmortem baseline value (minimum value of urethra internal pressure for 10 minutes after administration of somnopentyl) from a urethra internal pressure value before compound administration (0 minute) was 100%.

human ENPP2 = human ENPP2 (Homo sapiens (Human), UniProt Q13822); test: Measurement of Human ENPP2 Inhibitory Activity; format: biochemical; details: 1 μM test compound; 16:0-LPC substrate, choline production; read-out: ENPP2 inhibition rate(%) (1 μM)
Procedure: 10 μL of a test compound solution (10% dimethyl sulfoxide) at each concentration and 40 μL of a 5 μg/mL human ENPP2 solution (buffer A: 100 mmol/L Tris-HCl (pH 9.0), 500 mmol/L NaCl, 5 mmol/L MgCl2, 0.05% Triton X-100) were mixed, 50 μL of a 2 mmol/L 16:0-lysophosphatidylcholine (LPC) solution (buffer A) was further added to react at 37° C. for 24 hours. Subsequently, to 10 μL of the reaction solution was added 90 μL of a measurement buffer (0.5 mmol/L aminoantipyrine, 0.3 mmol/L N-ethyl-N-(2-hydroxy-3-sulfopropyl)-3-methylaniline, 1 U/mL peroxidase, 3 U/mL choline oxidase, 100 mmol/L Tris-HCl (pH 8.5), 5 mmol/L CaCl2) to react at 37° C. for 20 minutes, and spectrophotometric determination was performed at 555 nm.
Using a standard curve, a choline production amount (enzyme activity) in each test compound was calculated, and the inhibitory activity rate of each test compound was calculated, wherein the enzyme activity in a positive control to which a test compound is not added, was a 0% inhibition rate, and the enzyme activity in a negative control to which a test compound and human ENPP2 are not added, were 100% inhibition. Further, concerning the present compounds shown in Table 3, an IC50 value was calculated from inhibitory activity rate at each concentration.

SMILES: O=C(O)CCCCC(=O)N1CCc2c(n(CCCc3ccccc3)c3ccccc23)C1 [Example 3, 6-oxo-6-[9-(3-phenylpropyl)-1,3,4,9-tetrahydro-2H-beta-carbolin-2-yl]hexanoic acid]
urethra internal pressure ([1]; dose 0.1, 0.3, 1.0 mg/kg, FIG. 1): significantly reduced a urethra internal pressure

inhibition at 1 µM (human ENPP2): 98.6%
SMILES: O=C(CC12CCC(C(=O)O)(CC1)CC2)N1CCc2c(n(Cc3ccc(Cl)cc3F)c3ncccc23)C1 [Example 31(142), 4-{2-[9-(4-chloro-2-fluorobenzyl)-5,6,8,9-tetrahydro-7H-pyrido[4′,3′:4,5]pyrrolo[2,3-b]pyridin-7-yl]-2-oxoethyl}bicyclo[2.2.2]octane-1-carboxylic acid]

SMILES: O=C(C[C@H]1CC[C@H](C(=O)O)CC1)N1CCc2c(n(Cc3ccc(Cl)cc3F)c3ncccc23)C1 [Example 31(24), trans-4-{2-[9-(4-chloro-2-fluorobenzyl)-5,6,8,9-tetrahydro-7H-pyrido[4′,3′:4,5]pyrrolo[2,3-b]pyridin-7-yl]-2-oxoethyl}cyclohexanecarboxylic acid]
urethra internal pressure ([1]; dose 0.03, 0.1, 0.3 mg/kg, FIG. 2): significantly reduced a urethra internal pressure

— patent US9636330B2, “Tetrahydrocarboline derivative” (ONO PHARMACEUTICAL CO., LTD., priority 2010, dated 2017)
